Results as given in US9750701B2, “Pharmaceutical dosage form” (GRÜNENTHAL GMBH, priority 2008, dated 2017).
Like-named read-outs stand apart in the source and are kept apart here.

Experiment: pharmacokinetic data of tapentadol formulation (blood plasma concentrations)
Format: in vivo, patients/test subjects
Details: human, formulation containing tapentadol; for AUC(0-inf): read-out: AUC0-∞ (total area under the curve); for half-life: read-out: t1/2 (half-life) (converted)
From the text: For the purposes of the description, the pharmacokinetic parameters, which may be determined from the blood plasma concentrations of the pharmacologically active compound (A), are defined as follows: […]
The above parameters are in each case stated as mean values of the individual values for all investigated patients/test subjects.
In a particularly preferred embodiment the pharmacologically active compound (A) is tapentadol or a physiologically acceptable salt thereof and the pharmaceutical dosage form according to the invention is bioequivalent to a formulation that contains tapentadol or a physiologically acceptable salt thereof in a dosage of 200 mg and 250 mg, respectively, and is characterized by the following pharmacokinetic data: […]

For `CC[C@@H](c1cccc(O)c1)[C@@H](C)CN(C)C` [tapentadol], the Cmax (dosage 200 mg) was 62.5 ng/mL, the Tmax (dosage 200 mg) was 5 h and the AUC(0-inf) (dosage 200 mg) was 825 ng·h/mL. It also gave a half-life (dosage 200 mg) of 5.2 h, a Cmax (dosage 250 mg) of 89.3 ng/mL and a Tmax (dosage 250 mg) of 5 h. The AUC(0-inf) (dosage 250 mg) was 1100 ng·h/mL and the half-life (dosage 250 mg) was 5.4 h.
